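Step 1: Grow cells in 96-well plates. Step 2: Expose to compound for 48 hours at 5 concentrations. Step 3: Interpolate endpoints linearly; if unreached, use highest concentration. Abbreviation: GI50, concentration required for 50% inhibition of growth. TGI denotes the concentration required for complete inhibition of growth.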
Experiments:
Test in all cases: growth of human tumour cells (NCI), 48 h
A498 renal = test system: A498 renal
ACHN renal = test system: ACHN renal
BT-549 breast = test system: BT-549 breast
CAKI-1 renal = test system: CAKI-1 renal
CCRF-CEM leukemia = test system: CCRF-CEM leukemia
COLO 205 colon = test system: COLO 205 colon
DU-145 prostate = test system: DU-145 prostate
EKVX NSCLC = test system: EKVX NSCLC
HCC-2998 colon = test system: HCC-2998 colon
HCT-116 colon = test system: HCT-116 colon
HCT-15 colon = test system: HCT-15 colon
HL-60(TB) leukemia = test system: HL-60(TB) leukemia
HOP-62 NSCLC = test system: HOP-62 NSCLC
HOP-92 NSCLC = test system: HOP-92 NSCLC
HS 578T breast = test system: HS 578T breast
IGROV1 ovarian = test system: IGROV1 ovarian
KM12 colon = test system: KM12 colon
LOX IMVI melanoma = test system: LOX IMVI melanoma
M14 melanoma = test system: M14 melanoma
MALME-3M melanoma = test system: MALME-3M melanoma
MCF7 breast = test system: MCF7 breast
MDA-MB-231 breast = test system: MDA-MB-231 breast
MDA-MB-435 = test system: MDA-MB-435
MDA-MB-468 breast = test system: MDA-MB-468 breast
MOLT-4 leukemia = test system: MOLT-4 leukemia
NCI-H226 lung = test system: NCI-H226 lung
NCI-H23 lung = test system: NCI-H23 lung
NCI-H522 lung = test system: NCI-H522 lung
NCI/ADR-RES ovarian = test system: NCI/ADR-RES ovarian
OVCAR-3 ovarian = test system: OVCAR-3 ovarian
OVCAR-4 ovarian = test system: OVCAR-4 ovarian
OVCAR-5 ovarian = test system: OVCAR-5 ovarian
OVCAR-8 ovarian = test system: OVCAR-8 ovarian
PC-3 prostate = test system: PC-3 prostate
RPMI-8226 leukemia = test system: RPMI-8226 leukemia
RXF 393 renal = test system: RXF 393 renal
SF-268 CNS = test system: SF-268 CNS
SF-295 CNS = test system: SF-295 CNS
SF-539 CNS = test system: SF-539 CNS
SK-MEL-2 melanoma = test system: SK-MEL-2 melanoma
SK-MEL-28 melanoma = test system: SK-MEL-28 melanoma
SK-MEL-5 melanoma = test system: SK-MEL-5 melanoma
SN12C renal = test system: SN12C renal
SNB-19 CNS = test system: SNB-19 CNS
SNB-75 CNS = test system: SNB-75 CNS
SW-620 colon = test system: SW-620 colon
T-47D breast = test system: T-47D breast
TK-10 renal = test system: TK-10 renal
UACC-257 melanoma = test system: UACC-257 melanoma
UACC-62 melanoma = test system: UACC-62 melanoma
UO-31 renal = test system: UO-31 renal

SMILES: COc1ccc(-c2nc3cc(C)ccc3n2CC(=O)N=Nc2c(O)[nH]c3ccc(Cl)cc23)cc1
- GI50 (A498 renal): 3.63 µM
- TGI (A498 renal): > 100 µM
- GI50 (ACHN renal): 2.1 µM
- TGI (ACHN renal): 5.67 µM
- GI50 (BT-549 breast): 1.97 µM
- TGI (BT-549 breast): 4.66 µM
- GI50 (CAKI-1 renal): 2.35 µM
- TGI (CAKI-1 renal): 24.6 µM
- GI50 (CCRF-CEM leukemia): 3.07 µM
- TGI (CCRF-CEM leukemia): 60.2 µM
- GI50 (COLO 205 colon): 3.15 µM
- TGI (COLO 205 colon): 10.2 µM
- GI50 (DU-145 prostate): 3.18 µM
- TGI (DU-145 prostate): 16.2 µM
- GI50 (EKVX NSCLC): 1.91 µM
- TGI (EKVX NSCLC): 5.61 µM
- GI50 (HCC-2998 colon): 3.16 µM
- TGI (HCC-2998 colon): > 100 µM
- GI50 (HCT-116 colon): 1.83 µM
- TGI (HCT-116 colon): 4 µM
- GI50 (HCT-15 colon): 3.64 µM
- TGI (HCT-15 colon): > 100 µM
- GI50 (HL-60(TB) leukemia): 4.36 µM
- TGI (HL-60(TB) leukemia): > 100 µM
- GI50 (HOP-62 NSCLC): 2.13 µM
- TGI (HOP-62 NSCLC): 5.97 µM
- GI50 (HOP-92 NSCLC): 1.48 µM
- TGI (HOP-92 NSCLC): 4.63 µM
- GI50 (HS 578T breast): 1.79 µM
- TGI (HS 578T breast): 6.03 µM
- GI50 (IGROV1 ovarian): 3.22 µM
- TGI (IGROV1 ovarian): 24.5 µM
- GI50 (KM12 colon): 3.01 µM
- TGI (KM12 colon): 10 µM
- GI50 (LOX IMVI melanoma): 1.78 µM
- TGI (LOX IMVI melanoma): 3.93 µM
- GI50 (M14 melanoma): 1.9 µM
- TGI (M14 melanoma): 4.02 µM
- GI50 (MALME-3M melanoma): 2.12 µM
- TGI (MALME-3M melanoma): 4.38 µM
- GI50 (MCF7 breast): 2.69 µM
- TGI (MCF7 breast): 16.2 µM
- GI50 (MDA-MB-231 breast): 1.96 µM
- TGI (MDA-MB-231 breast): 4.8 µM
- GI50 (MDA-MB-435): 2.29 µM
- TGI (MDA-MB-435): 6.14 µM
- GI50 (MDA-MB-468 breast): 2.29 µM
- TGI (MDA-MB-468 breast): 5.05 µM
- GI50 (MOLT-4 leukemia): 2.43 µM
- TGI (MOLT-4 leukemia): > 100 µM
- GI50 (NCI-H226 lung): 1.9 µM
- TGI (NCI-H226 lung): 5.18 µM
- GI50 (NCI-H23 lung): 2.83 µM
- TGI (NCI-H23 lung): 11.3 µM
- GI50 (NCI-H522 lung): 3.99 µM
- TGI (NCI-H522 lung): 22 µM
- GI50 (NCI/ADR-RES ovarian): 2.48 µM
- TGI (NCI/ADR-RES ovarian): 7.16 µM
- GI50 (OVCAR-3 ovarian): 1.88 µM
- TGI (OVCAR-3 ovarian): 3.8 µM
- GI50 (OVCAR-4 ovarian): 2.35 µM
- TGI (OVCAR-4 ovarian): 6.5 µM
- GI50 (OVCAR-5 ovarian): 2.63 µM
- TGI (OVCAR-5 ovarian): 10.1 µM
- GI50 (OVCAR-8 ovarian): 1.82 µM
- TGI (OVCAR-8 ovarian): 3.77 µM
- GI50 (PC-3 prostate): 2.38 µM
- TGI (PC-3 prostate): 8.6 µM
- GI50 (RPMI-8226 leukemia): 3.01 µM
- TGI (RPMI-8226 leukemia): > 100 µM
- GI50 (RXF 393 renal): 1.49 µM
- TGI (RXF 393 renal): 3.9 µM
- GI50 (SF-268 CNS): 3 µM
- TGI (SF-268 CNS): > 100 µM
- GI50 (SF-295 CNS): 2.49 µM
- TGI (SF-295 CNS): 8 µM
- GI50 (SF-539 CNS): 1.76 µM
- TGI (SF-539 CNS): 3.41 µM
- GI50 (SK-MEL-2 melanoma): 3.25 µM
- TGI (SK-MEL-2 melanoma): 18.6 µM
- GI50 (SK-MEL-28 melanoma): 1.82 µM
- TGI (SK-MEL-28 melanoma): 3.39 µM
- GI50 (SK-MEL-5 melanoma): 2.07 µM
- TGI (SK-MEL-5 melanoma): 4.9 µM
- GI50 (SN12C renal): 2 µM
- TGI (SN12C renal): 6.18 µM
- GI50 (SNB-19 CNS): 2.73 µM
- TGI (SNB-19 CNS): 9.29 µM
- GI50 (SNB-75 CNS): 0.532 µM
- TGI (SNB-75 CNS): 4.09 µM
- GI50 (SW-620 colon): 2.35 µM
- TGI (SW-620 colon): 6.59 µM
- GI50 (T-47D breast): 2.73 µM
- TGI (T-47D breast): > 100 µM
- GI50 (TK-10 renal): 3.43 µM
- TGI (TK-10 renal): > 100 µM
- GI50 (UACC-257 melanoma): 2.1 µM
- TGI (UACC-257 melanoma): 4.99 µM
- GI50 (UACC-62 melanoma): 1.58 µM
- TGI (UACC-62 melanoma): 3.4 µM
- GI50 (UO-31 renal): 3.81 µM
- TGI (UO-31 renal): > 100 µM

— PubChem BioAssay (NCI)
